Assay results reported in ChEMBL document CHEMBL4138123, “Design, synthesis and biological evaluation of novel pyrazolochalcones as potential modulators of PI3K/Akt/mTOR pathway and inducers of apoptosis in breast cancer cells” (Eur J Med Chem, 2017).

Assays:
Type in all cases: functional
786-0 [1] = assay: Cytotoxicity against human 786-0 cells assessed as cell growth at 0.01 uM after 48 hrs by sulforhodamine B assay relative to control; details: 786-0, 48 h, read-out: Activity
KM12 = assay: Cytotoxicity against human KM12 cells assessed as growth inhibition after 48 hrs by sulforhodamine B assay; details: KM12, 48 h
HT-29 [2] = assay: Cytotoxicity against human HT-29 cells assessed as cell growth at 0.1 uM after 48 hrs by sulforhodamine B assay relative to control; details: HT-29, 48 h, read-out: Activity
OVCAR-3 = assay: Cytotoxicity against human OVCAR3 cells assessed as growth inhibition after 48 hrs by sulforhodamine B assay; details: OVCAR-3, 48 h
SK-MEL-5 = assay: Cytotoxicity against human SK-MEL-5 cells assessed as cell growth at 10 uM after 48 hrs by sulforhodamine B assay relative to control; details: SK-MEL-5, 48 h, read-out: Activity
SW-620 = assay: Cytotoxicity against human SW620 cells assessed as cell growth at 0.01 uM after 48 hrs by sulforhodamine B assay relative to control; details: SW-620, 48 h, read-out: Activity
BT-549 = assay: Cytotoxicity against human BT549 cells assessed as growth inhibition after 48 hrs by sulforhodamine B assay; details: BT-549, 48 h
UO-31 = assay: Cytotoxicity against human UO31 cells assessed as cell growth at 0.01 uM after 48 hrs by sulforhodamine B assay relative to control; details: UO-31, 48 h, read-out: Activity
SK-OV-3 = assay: Cytotoxicity against human SKOV3 cells assessed as cell growth at 1 uM after 48 hrs by sulforhodamine B assay relative to control; details: SK-OV-3, 48 h, read-out: Activity
MDA-MB-231 = assay: Cytotoxicity against human MDA-MB-231 cells assessed as cell growth at 100 uM after 48 hrs by sulforhodamine B assay relative to control; details: MDA-MB-231, 48 h, read-out: Activity
T47D [3] = assay: Cytotoxicity against human T47D cells assessed as cell growth at 10 uM after 48 hrs by sulforhodamine B assay relative to control; details: read-out: Activity
SN12C [4] = assay: Cytotoxicity against human SN12C cells assessed as cell growth at 0.01 uM after 48 hrs by sulforhodamine B assay relative to control; details: read-out: Activity
HOP-62 = assay: Cytotoxicity against human HOP62 cells assessed as growth inhibition after 48 hrs by sulforhodamine B assay; details: HOP-62, 48 h
A498 = assay: Cytotoxicity against human A498 cells assessed as cell growth at 0.01 uM after 48 hrs by sulforhodamine B assay relative to control; details: A498, 48 h, read-out: Activity
T47D [5] = assay: Cytotoxicity against human T47D cells assessed as cell growth at 1 uM after 48 hrs by sulforhodamine B assay relative to control; details: read-out: Activity
M14 [6] = assay: Cytotoxicity against human M14 cells assessed as cell growth at 10 uM after 48 hrs by sulforhodamine B assay relative to control; details: M14, 48 h, read-out: Activity
SF-539 [7] = assay: Cytotoxicity against human SF539 cells assessed as cell growth at 0.01 uM after 48 hrs by sulforhodamine B assay relative to control; details: SF-539, 48 h, read-out: Activity
M14 [8] = assay: Cytotoxicity against human M14 cells assessed as cell growth at 1 uM after 48 hrs by sulforhodamine B assay relative to control; details: M14, 48 h, read-out: Activity
DU-145 = assay: Cytotoxicity against human DU145 cells assessed as cell growth at 100 uM after 48 hrs by sulforhodamine B assay relative to control; details: DU-145, 48 h, read-out: Activity
OVCAR-5 [9] = assay: Cytotoxicity against human OVCAR5 cells assessed as cell growth at 0.1 uM after 48 hrs by sulforhodamine B assay relative to control; details: OVCAR-5, 48 h, read-out: Activity
SF-539 [10] = assay: Cytotoxicity against human SF539 cells assessed as cell growth at 1 uM after 48 hrs by sulforhodamine B assay relative to control; details: SF-539, 48 h, read-out: Activity
HCT-116 = assay: Cytotoxicity against human HCT116 cells assessed as cell growth at 100 uM after 48 hrs by sulforhodamine B assay relative to control; details: HCT-116, 48 h, read-out: Activity
SNB-19 = assay: Cytotoxicity against human SNB19 cells assessed as cell growth at 100 uM after 48 hrs by sulforhodamine B assay relative to control; details: SNB-19, 48 h, read-out: Activity
SR = assay: Cytotoxicity against human SR cells assessed as cell growth at 0.1 uM after 48 hrs by sulforhodamine B assay relative to control; details: read-out: Activity
NCI-H322M = assay: Cytotoxicity against human NCI-H322M cells assessed as cell growth at 10 uM after 48 hrs by sulforhodamine B assay relative to control; details: read-out: Activity
OVCAR-5 [11] = assay: Cytotoxicity against human OVCAR5 cells assessed as cell growth at 10 uM after 48 hrs by sulforhodamine B assay relative to control; details: OVCAR-5, 48 h, read-out: Activity
RXF 393 [12] = assay: Cytotoxicity against human RXF393 cells assessed as cell growth at 100 uM after 48 hrs by sulforhodamine B assay relative to control; details: RXF 393, 48 h, read-out: Activity
HCT-15 = assay: Cytotoxicity against human HCT15 cells assessed as cell growth at 100 uM after 48 hrs by sulforhodamine B assay relative to control; details: HCT-15, 48 h, read-out: Activity
RXF 393 [13] = assay: Cytotoxicity against human RXF393 cells assessed as cell growth at 0.01 uM after 48 hrs by sulforhodamine B assay relative to control; details: RXF 393, 48 h, read-out: Activity
NCI-H226 = assay: Cytotoxicity against human NCI-H226 cells assessed as growth inhibition after 48 hrs by sulforhodamine B assay; details: NCI-H226, 48 h
HT-29 [14] = assay: Cytotoxicity against human HT-29 cells assessed as cell growth at 10 uM after 48 hrs by sulforhodamine B assay relative to control; details: HT-29, 48 h, read-out: Activity
IGROV-1 = assay: Cytotoxicity against human IGROV1 cells assessed as cell growth at 10 uM after 48 hrs by sulforhodamine B assay relative to control; details: IGROV-1, 48 h, read-out: Activity
M14 [15] = assay: Cytotoxicity against human M14 cells assessed as cell growth at 100 uM after 48 hrs by sulforhodamine B assay relative to control; details: M14, 48 h, read-out: Activity
M14 [16] = assay: Cytotoxicity against human M14 cells assessed as cell growth at 0.01 uM after 48 hrs by sulforhodamine B assay relative to control; details: M14, 48 h, read-out: Activity
T47D [17] = assay: Cytotoxicity against human T47D cells assessed as growth inhibition after 48 hrs by sulforhodamine B assay
786-0 [18] = assay: Cytotoxicity against human 786-0 cells assessed as cell growth at 100 uM after 48 hrs by sulforhodamine B assay relative to control; details: 786-0, 48 h, read-out: Activity
SN12C [19] = assay: Cytotoxicity against human SN12C cells assessed as growth inhibition after 48 hrs by sulforhodamine B assay

Structure (SMILES): COc1ccc(C(=O)/C=C/c2cc(-c3cc(OC)c(OC)c(OC)c3)n[nH]2)cc1
- growth at 0.01 µM (786-0 [1]): 98%
- LC50 (KM12): 6.02 µM
- TGI (KM12): 3.06 µM
- growth at 0.1 µM (HT-29 [2]): 102%
- LC50 (OVCAR-3): 7.27 µM
- TGI (OVCAR-3): 3.56 µM
- growth at 10 µM (SK-MEL-5): -89%
- growth at 0.01 µM (SW-620): 99%
- TGI (BT-549): 3.86 µM
- growth at 0.01 µM (UO-31): 87%
- growth at 1 µM (SK-OV-3): 98%
- growth at 100 µM (MDA-MB-231): 19%
- growth at 10 µM (T47D [3]): 1%
- growth at 0.01 µM (SN12C [4]): 99%
- LC50 (HOP-62): 8.07 µM
- TGI (HOP-62): 3.77 µM
- growth at 0.01 µM (A498): 98%
- growth at 1 µM (T47D [5]): 78%
- growth at 10 µM (M14 [6]): -44%
- growth at 0.01 µM (SF-539 [7]): 97%
- growth at 1 µM (M14 [8]): 99%
- growth at 100 µM (DU-145): -2%
- growth at 0.1 µM (OVCAR-5 [9]): 97%
- growth at 1 µM (SF-539 [10]): 87%
- growth at 100 µM (HCT-116): -10%
- growth at 100 µM (SNB-19): -6%
- growth at 0.1 µM (SR): 83%
- growth at 10 µM (NCI-H322M): -60%
- growth at 10 µM (OVCAR-5 [11]): -70%
- growth at 100 µM (RXF 393 [12]): -93%
- growth at 100 µM (HCT-15): -33%
- growth at 0.01 µM (RXF 393 [13]): 93%
- TGI (NCI-H226): 4.07 µM
- growth at 10 µM (HT-29 [14]): -58%
- growth at 10 µM (IGROV-1): -47%
- growth at 100 µM (M14 [15]): -7%
- growth at 0.01 µM (M14 [16]): 100%
- LC50 (T47D [17]): > 100 µM
- TGI (T47D [17]): 13 µM
- growth at 100 µM (786-0 [18]): -48%

Structure (SMILES): COc1cc(-c2cc(/C=C/C(=O)c3ccc(F)c(F)c3)[nH]n2)cc(OC)c1OC
- growth at 0.01 µM (786-0 [1]): 95%
- LC50 (KM12): > 100 µM
- TGI (KM12): 11.4 µM
- growth at 0.1 µM (HT-29 [2]): 102%
- LC50 (OVCAR-3): 43.6 µM
- TGI (OVCAR-3): 6.25 µM
- growth at 10 µM (SK-MEL-5): -21%
- growth at 0.01 µM (SW-620): 95%
- LC50 (SN12C [19]): > 100 µM
- TGI (SN12C [19]): 25.5 µM
- LC50 (concentration killing 50% of cells) (BT-549): 79.5 µM
- TGI (BT-549): 19.3 µM
- growth at 0.01 µM (UO-31): 90%
- growth at 1 µM (SK-OV-3): 90%
- growth at 100 µM (MDA-MB-231): -49%
- growth at 10 µM (T47D [3]): 9%
- growth at 0.01 µM (SN12C [4]): 95%
- LC50 (HOP-62): > 100 µM
- TGI (HOP-62): > 100 µM
- growth at 0.01 µM (A498): 100%
- growth at 1 µM (T47D [5]): 76%
- growth at 10 µM (M14 [6]): 3%
- growth at 0.01 µM (SF-539 [7]): 100%
- growth at 1 µM (M14 [8]): 86%
- growth at 0.1 µM (OVCAR-5 [9]): 93%
- growth at 1 µM (SF-539 [10]): 90%
- growth at 100 µM (HCT-116): -52%
- growth at 100 µM (SNB-19): 22%
- growth at 0.1 µM (SR): 106%
- growth at 10 µM (NCI-H322M): 18%
- growth at 10 µM (OVCAR-5 [11]): 27%
- growth at 100 µM (RXF 393 [12]): -61%
- growth at 100 µM (HCT-15): 2%
- growth at 0.01 µM (RXF 393 [13]): 94%
- LC50 (concentration killing 50% of cells) (NCI-H226): 66 µM
- TGI (NCI-H226): 15.8 µM
- growth at 10 µM (HT-29 [14]): -24%
- growth at 10 µM (IGROV-1): 14%
- growth at 100 µM (M14 [15]): -38%
- growth at 0.01 µM (M14 [16]): 94%
- LC50 (T47D [17]): > 100 µM
- TGI (T47D [17]): 27 µM
- growth at 100 µM (786-0 [18]): -47%

Structure (SMILES): COc1cc(-c2cc(/C=C/C(=O)c3ccc4c(c3)OCO4)[nH]n2)cc(OC)c1OC
- growth at 0.01 µM (786-0 [1]): 96%
- growth at 0.1 µM (HT-29 [2]): 100%
- LC50 (OVCAR-3): > 100 µM
- TGI (OVCAR-3): 12.3 µM
- growth at 10 µM (SK-MEL-5): 26%
- growth at 0.01 µM (SW-620): 99%
- LC50 (SN12C [19]): > 100 µM
- TGI (SN12C [19]): > 100 µM
- LC50 (concentration killing 50% of cells) (BT-549): > 100 µM
- growth at 0.01 µM (UO-31): 86%
- growth at 1 µM (SK-OV-3): 102%
- growth at 100 µM (MDA-MB-231): 21%
- growth at 10 µM (T47D [3]): 6%
- growth at 0.01 µM (SN12C [4]): 97%
- LC50 (HOP-62): 23.5 µM
- TGI (HOP-62): 5.17 µM
- growth at 0.01 µM (A498): 89%
- growth at 1 µM (T47D [5]): 79%
- growth at 10 µM (M14 [6]): 15%
- growth at 0.01 µM (SF-539 [7]): 98%
- growth at 1 µM (M14 [8]): 100%
- growth at 100 µM (DU-145): -15%
- growth at 0.1 µM (OVCAR-5 [9]): 91%
- growth at 1 µM (SF-539 [10]): 86%
- growth at 100 µM (HCT-116): 1%
- growth at 100 µM (SNB-19): 6%
- growth at 0.1 µM (SR): 101%
- growth at 10 µM (NCI-H322M): 3%
- growth at 10 µM (OVCAR-5 [11]): 16%
- growth at 100 µM (RXF 393 [12]): -89%
- growth at 100 µM (HCT-15): -10%
- growth at 0.01 µM (RXF 393 [13]): 95%
- LC50 (concentration killing 50% of cells) (NCI-H226): > 100 µM
- TGI (NCI-H226): > 100 µM
- growth at 10 µM (HT-29 [14]): -54%
- growth at 10 µM (IGROV-1): 29%
- growth at 100 µM (M14 [15]): 22%
- growth at 0.01 µM (M14 [16]): 97%
- LC50 (T47D [17]): > 100 µM
- TGI (T47D [17]): 17 µM
- growth at 100 µM (786-0 [18]): -30%
